One series deals with T1, PARP-1 enzyme (Homo sapiens, UniProt P09874).
T1 construct: made in house
T1 sequence (P09874 whole entry): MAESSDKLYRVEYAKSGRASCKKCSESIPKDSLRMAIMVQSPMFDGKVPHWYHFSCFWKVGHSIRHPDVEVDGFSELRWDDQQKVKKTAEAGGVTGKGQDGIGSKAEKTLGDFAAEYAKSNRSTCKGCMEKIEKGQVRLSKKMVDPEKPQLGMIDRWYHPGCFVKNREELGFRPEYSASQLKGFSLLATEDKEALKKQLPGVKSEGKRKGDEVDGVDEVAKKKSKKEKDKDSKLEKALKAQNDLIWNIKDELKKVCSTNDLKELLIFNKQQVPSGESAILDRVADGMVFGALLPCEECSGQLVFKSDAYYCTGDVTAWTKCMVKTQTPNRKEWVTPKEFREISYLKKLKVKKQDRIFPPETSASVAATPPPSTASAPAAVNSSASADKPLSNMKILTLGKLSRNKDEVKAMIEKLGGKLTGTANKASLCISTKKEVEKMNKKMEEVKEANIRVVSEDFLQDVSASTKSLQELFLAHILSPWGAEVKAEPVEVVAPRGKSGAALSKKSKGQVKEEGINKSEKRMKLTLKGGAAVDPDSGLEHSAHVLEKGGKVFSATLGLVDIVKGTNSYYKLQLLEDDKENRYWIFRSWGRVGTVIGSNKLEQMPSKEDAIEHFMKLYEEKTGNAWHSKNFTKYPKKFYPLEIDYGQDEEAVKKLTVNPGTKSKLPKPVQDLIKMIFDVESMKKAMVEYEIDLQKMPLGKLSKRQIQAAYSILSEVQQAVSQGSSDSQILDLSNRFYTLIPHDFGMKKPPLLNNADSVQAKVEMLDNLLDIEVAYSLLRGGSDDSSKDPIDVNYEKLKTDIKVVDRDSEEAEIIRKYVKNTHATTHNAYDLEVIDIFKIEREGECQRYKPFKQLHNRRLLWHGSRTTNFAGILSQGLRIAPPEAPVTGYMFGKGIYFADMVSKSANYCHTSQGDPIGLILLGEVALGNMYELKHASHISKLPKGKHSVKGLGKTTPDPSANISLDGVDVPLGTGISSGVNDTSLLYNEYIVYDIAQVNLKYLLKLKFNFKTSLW
In words: In vitro filtration assay for PARP-1 inhibitory activity. The class given is biochemical. Conditions: nicked DNA activated PARP-1, [32P]-NAD, histones; read-out: In vitro filtration assay pIC50 (converted). The protocol:
In Vitro Filtration Assay for PARP-1 Inhibitory Activity
Compounds of the present invention were tested in an in vitro filtration assay assessing PARP-1 activity (triggered in the presence of nicked DNA) by means of its histone poly (ADP-ribosyl)ation activity using [^32P]-NAD as ADP-ribosyl donor. The radioactive ribosylated histones were precipitated by trichloroacetic acid (TCA) in 96-well filterplates and the incorporated [^32P] measured using a scintillation counter A mixture of histones (stock solution: 5 mg/ml in H2O), NAD^+ (stock solution: 100 mM in H2O), and [^32P]-NAD^+ in incubation buffer (50 mM Tris/HCl, pH 8; 0.2 mM DTT; 4 mM MgCl2) was made. A mixture of the PARP-1 enzyme (5-10 μg/ml) and nicked DNA was also made. The nicked DNA was prepared as described in the in vitro SPA for PARP-1 inhibitory activity. Seventy-five μl of the PARP-1 enzyme/DNA mixture together with 1 μl of compound in DMSO and 25 μl of histones-NAD^+/[^32P]-NAD^+ mixture was added per well of a 96-well filterplate (0.45 μm, supplier Millipore). The final concentrations in the incubation mixture were 2 μg/ml for the histones, 0.1 mM for the NAD^+, 200 μM (0.5 μC) for the [^32P]-NAD^+ and 2 μg/ml for the nicked DNA. Plates were incubated for 15 min. at room temperature and the reaction was terminated by the addition of 10 μl ice cold 100% TCA followed by the addition of 10 μl ice-cold BSA solution (1% in H2O). The protein fraction was allowed to precipitate for 10 min. at 4° C. and plates were vacuum filtered. The plates were subsequently washed with, for each well, 1 ml of 10% ice cold TCA, 1 ml of 5% ice cold TCA and 1 ml of 5% TCA at room temperature. Finally 100 μl of scintillation solution (Microscint 40, Packard) was added to each well and the plates were transferred to a TopCountNXT™ (supplier: Packard) for scintillation counting and values were expressed as counts per minute (cpm). For each experiment, controls (containing PARP-1 enzyme and DMSO without compound), a blank incubation (containing DMSO but no PARP-1 enzyme or compound) and samples (containing PARP-1 enzyme and compound dissolved in DMSO) were run in parallel. All compounds tested were dissolved and eventually further diluted in DMSO. In first instance, compounds were tested at a concentration of 10^−5M. […] In each test, the blank value was subtracted from both the control and the sample values. The control sample represented maximal PARP-1 enzyme activity. For each sample, the amount of cpm was expressed as a percentage of the mean cpm value of the controls. When appropriate, IC50-values (concentration of the drug, needed to reduce the PARP-1 enzyme activity to 50% of the control) were computed using linear interpolation between the experimental points just above and below the 50% level. Herein the effects of test compounds are expressed as pIC50 (the negative log value of the IC50-value). As a reference compound, 4-amino-1,8-naphthalimide was included to validate the filtration assay.
Take `CCc1cc2cc(C(O)C3CCN(Cc4ccccc4)CC3)ccc2[nH]c1=O` (stereo not drawn) [Co. No. 27]: the IC50 is 2200 nM.
Still for that read-out and setting: the figure for `CCc1cc2cc(C(C3CCCCCC3)N3CCC(=O)CC3)ccc2[nH]c1=O` (stereo not drawn) [Co. No. 2] is 568 nM; for `CCc1cc2cc(C(CCN3CCN(C)CC3)C3CCCCC3)ccc2[nH]c1=O` (stereo not drawn) [Co. No. 5] it is 5060 nM; for `CCc1cc2cc(C(NCCN(C)C)C3CCCCC3)ccc2[nH]c1=O` (stereo not drawn) [Co. No. 25] it is 6010 nM.
Same read-out and setting: the figure for `CCc1cc2cc(C(O)CN3CCOCC3)ccc2[nH]c1=O` (stereo not drawn) [Co. No. 15] is 2540 nM; for `CCCCC(c1ccc2[nH]c(=O)c(CC)cc2c1)N1CCC(NCCOC)CC1` (stereo not drawn) [Co. No. 33] it is 4210 nM; for `CCc1cc2cc(C(O)C3CCCCC3)ccc2[nH]c1=O` (stereo not drawn) [Co. No. 28] it is 3150 nM.
Still for that read-out and setting: for `CCc1cc2cc(C(C(CC)CC)N3CCC(=O)CC3)ccc2[nH]c1=O` (stereo not drawn) [Co. No. 17] the value was 2560 nM; for `CCc1cc2cc(C(O)CN3CCN(C)CC3)ccc2[nH]c1=O` (stereo not drawn) [Co. No. 14], 1840 nM; for `CCc1cc2cc(C(C3CCCCC3)N3CCC(NCc4cccnc4)CC3)ccc2[nH]c1=O` (stereo not drawn) [Co. No. 31], 8260 nM.
`CCc1cc2cc(C(C3CCCCC3)N3CCC(N4CCOCC4)CC3)ccc2[nH]c1=O` (stereo not drawn) [Co. No. 35]: the IC50 is 3400 nM.
On the same count and under the same terms, the figure for `CCc1cc2cc(C(O)CN3CCCCC3)ccc2[nH]c1=O` (stereo not drawn) [Co. No. 1] is 349 nM; for `CCc1cc2cc(C(c3ccsc3)N3CCC(=O)CC3)ccc2[nH]c1=O` (stereo not drawn) [Co. No. 23] it is 1260 nM; for `CCc1cc2cc(C(c3ccsc3)N3CCC(NCCOC)CC3)ccc2[nH]c1=O` (stereo not drawn) [Co. No. 32] it is 2830 nM.
Consider `CCc1cc2cc(C(NCCOC)C3CCCCC3)ccc2[nH]c1=O` (stereo not drawn) [Co. No. 18], for which the IC50 is 2990 nM.

Test system in the next series: not given
Experiment: not given
Conditions: not given
What is called melting point is the temperature of the solid-liquid transition. In turn, `CCc1cc2cc(C(C3CCCCCC3)N3CCC(=O)CC3)ccc2[nH]c1=O` (stereo not drawn) [Co. No. 2] came in with a melting point of 218 °C.
The molecule `CCc1cc2cc(C(CCN3CCN(C)CC3)C3CCCCC3)ccc2[nH]c1=O` (stereo not drawn) [Co. No. 5] showed a melting point of 181 °C.
In the case of `CCc1cc2cc(C(O)CN3CCCCC3)ccc2[nH]c1=O` (stereo not drawn) [Co. No. 1], the melting point turned out to be 172 °C.

For a further series, the target named is T1, PARP-1 enzyme. In words: In vitro Scintillation Proximity Assay (SPA) for PARP-1 inhibitory activity. In kind it is biochemical. The following applies: nicked DNA activated PARP-1, [3H]-NAD+, biotinylated histones; read-out: In vitro SPA pIC50 (converted). The protocol: Pharmacological Example In Vitro Scintillation Proximity Assay (SPA) for PARP-1 Inhibitory Activity
Compounds of the present invention were tested in an in vitro assay based on SPA technology (proprietary to Amersham Pharmacia Biotech).
In principle, the assay relies upon the well established SPA technology for the detection of poly(ADP-ribosyl)ation of biotinylated target proteins, i.e histones. This ribosylation is induced using nicked DNA activated PARP-1 enzyme and [^3H]-nicotinamide adenine dinucleotide ([^3H]-NAD^+) as ADP-ribosyl donor.
As inducer of PARP-1 enzyme activity, nicked DNA was prepared. For this, 25 mg of DNA (supplier: Sigma) was dissolved in 25 ml DNAse buffer (10 mM Tris-HCl, pH 7.4; 0.5 mg/ml Bovine Serum Albumine (BSA); 5 mM MgCl2.6H2O and 1 mM KCl) to which 50 μl DNAse solution (1 mg/ml in 0.15 M NaCl) was added. After an incubation of 90 min. at 37° C., the reaction was terminated by adding 1.45 g NaCl, followed by a further incubation at 58° C. for 15 min. The reaction mixture was cooled on ice and dialysed at 4° C. for respectively 1.5 and 2 hours against 1.5 l of 0.2 M KCl, and twice against 1.5 l of 0.01 M KCl for 1.5 and 2 h respectively. The mixture was aliquoted and stored at −20° C. Histones (1 mg/ml, type II-A, supplier: Sigma) were biotinylated using the biotinylation kit of Amersham and stored aliquoted at −20° C. A stock solution of 100 mg/ml SPA poly(vinyl toluene) (PVT) beads (supplier: Amersham) was made in PBS. A stock solution of [^3H]-NAD^+ was made by adding 120 μl of [^3H]-NAD^+ (0.1 mCi/ml, supplier: NEN) to 6 ml incubation buffer (50 mM Tris/HCl, pH 8; 0.2 mM DTT; 4 mM MgCl2). A solution of 4 mM NAD^+ (supplier: Roche) was made in incubation buffer (from a 100 mM stock solution in water stored at −20° C.). The PARP-1 enzyme was produced using art known techniques, i.e. cloning and expression of the protein starting from human liver cDNA. Information concerning the used protein sequence of the PARP-1 enzyme including literature references can be found in the Swiss-Prot database under primary accession number P09874. Biotinylated histones and PVT-SPA beads were mixed and pre-incubated for 30 min. at room temperature. PARP-1 enzyme (concentration was lot dependent) was mixed with the nicked DNA and the mixture was pre-incubated for 30 min. at 4° C. Equal parts of this histones/PVT-SPA beads solution and PARP-1 enzyme/DNA solution were mixed and 75 μl of this mixture together with 1 μl of compound in DMSO and 25 μl of [^3H]-NAD^+ was added per well into a 96-well microtiterplate. The final concentrations in the incubation mixture were 2 μg/ml for the biotinylated histones, 2 mg/ml for the PVT-SPA beads, 2 μg/ml for the nicked DNA and between 5-10 μg/ml for the PARP-1 enzyme. After incubation of the mixture for 15 min. at room temperature, the reaction was terminated by adding 100 μl of 4 mM NAD^+ in incubation buffer (final concentration 2 mM) and plates were mixed.
The beads were allowed to sediment for at least 15 min. and plates transferred to a TopCountNXT™ (Packard) for scintillation counting, values were expressed as counts per minute (cpm). For each experiment, controls (containing PARP-1 enzyme and DMSO without compound), a blank incubation (containing DMSO but no PARP-1 enzyme or compound) and samples (containing PARP-1 enzyme and compound dissolved in DMSO) were run in parallel. All compounds tested were dissolved and eventually further diluted in DMSO. […] In each test, the blank value was subtracted from both the control and the sample values. The control sample represented maximal PARP-1 enzyme activity. For each sample, the amount of cpm was expressed as a percentage of the mean cpm value of the controls. When appropriate, IC50-values (concentration of the drug, needed to reduce the PARP-1 enzyme activity to 50% of the control) were computed using linear interpolation between the experimental points just above and below the 50% level. […]
Consider `CCc1cc2cc(C(O)C3CCN(Cc4ccccc4)CC3)ccc2[nH]c1=O` (stereo not drawn) [Co. No. 27], for which the IC50 is 180 nM.
Regarding `CCc1cc2cc(C(C3CCCCCC3)N3CCC(=O)CC3)ccc2[nH]c1=O` (stereo not drawn) [Co. No. 2], the IC50 was 232 nM.
Same read-out and setting: for `CCc1cc2cc(C(CCN3CCN(C)CC3)C3CCCCC3)ccc2[nH]c1=O` (stereo not drawn) [Co. No. 5] the value was 507 nM.
As for `CCc1cc2cc(C(NCCN(C)C)C3CCCCC3)ccc2[nH]c1=O` (stereo not drawn) [Co. No. 25], the IC50 is 1110 nM.
The same measure, in the same setting: for `CCc1cc2cc(C(O)CN3CCOCC3)ccc2[nH]c1=O` (stereo not drawn) [Co. No. 15] the value was 288 nM; for `CCCCC(c1ccc2[nH]c(=O)c(CC)cc2c1)N1CCC(NCCOC)CC1` (stereo not drawn) [Co. No. 33], 832 nM; for `CCc1cc2cc(C(O)C3CCCCC3)ccc2[nH]c1=O` (stereo not drawn) [Co. No. 28], 288 nM.
Still for that read-out and setting: the figure for `CCc1cc2cc(C(C(CC)CC)N3CCC(=O)CC3)ccc2[nH]c1=O` (stereo not drawn) [Co. No. 17] is 383 nM; for `CCc1cc2cc(C(O)CN3CCN(C)CC3)ccc2[nH]c1=O` (stereo not drawn) [Co. No. 14] it is 388 nM.
Same read-out and setting: for `CCc1cc2cc(C(C3CCCCC3)N3CCC(NCc4cccnc4)CC3)ccc2[nH]c1=O` (stereo not drawn) [Co. No. 31] the value was 863 nM; for `CCc1cc2cc(C(C3CCCCC3)N3CCC(N4CCOCC4)CC3)ccc2[nH]c1=O` (stereo not drawn) [Co. No. 35], 640 nM; for `CCc1cc2cc(C(O)CN3CCCCC3)ccc2[nH]c1=O` (stereo not drawn) [Co. No. 1], 329 nM.
In the case of `CCc1cc2cc(C(c3ccsc3)N3CCC(=O)CC3)ccc2[nH]c1=O` (stereo not drawn) [Co. No. 23], the IC50 is 232 nM.
The same measure, in the same setting: the figure for `CCc1cc2cc(C(c3ccsc3)N3CCC(NCCOC)CC3)ccc2[nH]c1=O` (stereo not drawn) [Co. No. 32] is 196 nM.
On the same count and under the same terms, the figure for `CCc1cc2cc(C(NCCOC)C3CCCCC3)ccc2[nH]c1=O` (stereo not drawn) [Co. No. 18] is 750 nM.
